The record followed here is a melting point compilation (Tetko et al.; mined from patent text by program, amines drawn as free bases though some values may be those of a salt).

Some results are limits rather than exact numbers.

`Cn1c(-c2nnc(Cc3ccc(F)cc3)o2)c(O)c(=O)c2ccccc21`: the melting point stood at 222 °C.
`c1ccc2c(c1)ccc1cnsc12` came in with a melting point of 52 °C.
Molecule `NC(=O)C1CCN(CCOc2ccccc2CCc2ccccc2)CC1` registered a melting point of 60 to 63 °C.
The figure for `CCOC(=O)C(C)(C)Oc1ccc(C#N)cc1C` is 46 °C; for `Cc1c(C2(c3ccccc3)CCC(c3ccccc3)(N(C)C)CC2)[nH]c2ccccc12` (configuration not stated) it is 193 to 207 °C.
For the molecule `CN(C)C(=O)CC(=O)c1ccc(C(=O)CC(=O)C(C)(C)C)cc1`, the melting point lay within 159 to 160 °C.
`COc1ccc(C(F)(F)F)cc1Nc1cccn2nc(Cl)nc12`: the melting point lay in the range of 144 to 146 °C.
Consider `CCOC(=O)c1nc[nH]c1-c1ccccc1`, for which the melting point was 203 to 205 °C.
Molecule `O=[N+]([O-])c1ccc(C=NNC2O[C@H](COCc3ccccc3)[C@@H](OCc3ccccc3)[C@H]2OCc2ccccc2)cc1` (some centres not stated) came in with a melting point of 93 °C.
The figure for `CCN1CCCC1CNC(=O)c1cc(S(=O)(=O)NC)cc2c1OCCO2` (configuration not stated) is 136 to 137 °C; for `N#Cc1cnc2sc(C(=O)O)cc2c1Nc1ccc2[nH]ccc2c1` it is above 250 °C.
In the case of `COC(=O)C(C)(C)OCc1cc2nc(Cl)ccc2n1S(=O)(=O)c1ccccc1` it was 84 to 87 °C; in that of `COc1c(N)nc(Cl)nc1Cl`, 155 to 156 °C.
The figure for `CS(=O)(=O)NC(=O)CCc1ccc(OC2CCc3cc(Cl)ccc32)cc1` (configuration not stated) is 140 to 141 °C.
The molecule `CCCc1cc2c(NC(=S)N3Cc4ccccc4CC3CCO)cccc2cn1` (racemic) yielded a melting point of 175 °C.
In the case of `CCOC(=O)COc1cc(-c2ccc(C)cc2)nc2cccc(C(F)(F)F)c12` it was 134 °C; in that of `CCCC(c1cccc(NC(=O)OCc2ccccc2)c1)c1c(O)c2c(oc1=O)CCCCCC2` (configuration not stated), 64 to 67 °C.
`CCOC1CC2(C)C(CCC3C4CC(C)C(C(C)=O)C4(C)CC(=O)C32)CC1O` (configuration not stated) yielded a melting point of 178 to 179 °C.
The figure for `C#CC1(OCc2cc(F)ccc2F)CCN(C(C)=O)CC1` is 90 to 93 °C; for `CCCCCCCc1ccc(C(=O)CCCCC(=O)O)cc1[N+](=O)[O-]` it is 53 to 56 °C; for `COC(=O)c1cc(CBr)cc(C2(C#N)CC2)c1` it is 78.3 to 79.8 °C.
In the case of `O=c1oc(-c2ccccc2)cc(O)c1SCCCCc1ccccc1` it was 103 to 105 °C.
In the case of `Cc1ccc2[nH]c(=O)n(CCCN3CCN(C(c4ccccc4)c4ccccc4)CC3)c2c1` it was 196 °C; in that of `CNC(=O)OCc1c(COC(=O)NC)c2n(c1C)Cc1ccccc1C2`, 174 to 176 °C; in that of `CCOC(=O)COc1ccc(NC(=O)NC(=O)c2ccc(C(=N)N)cc2)cc1`, 198 to 200 °C.
Turning to `CCCCCN1C(=O)C(NC(=O)c2ccc(Cl)c(Cl)c2)c2ccccc21` (configuration not stated), the melting point is 125 to 126 °C.
In the case of `C=CCc1ccc(CCNC(=O)c2cc(Cl)ccc2OC)cc1S(=O)(=O)NC(=O)NC` it was 124 to 126 °C; in that of `CCOC(=O)c1cc2ccc3c4ccccc4ccc3c2n1C`, 136 to 138 °C; in that of `Cc1nc(C)c(Cl)c(NCc2nccc(SCCCN3CCNCC3)c2C)n1`, 144 to 145 °C.
The molecule `O=C(O)Cc1ccc(OCc2ccccc2)c(C(=O)O)c1` showed a melting point of 143 to 145 °C.
`CCCCc1ccc(C(=O)Oc2ccc(C=O)cc2)cc1` registered a melting point of 49.7 °C.
In the case of `NC(=O)NN=Cc1ccc(Oc2ccc3c(c2)OCO3)cc1` it was 225 to 226 °C; in that of `CN(C(=O)c1cccs1)c1cccc2cc(-c3nccs3)[nH]c12`, 250 °C.
The figure for `CC(C)N(CCN1C(=O)C(=O)c2cc(F)ccc21)C(C)C` is 100 to 102 °C; for `CCOc1ccc2[nH]c(C)cc2c1` it is 76 to 77 °C; for `COc1ccc(C(=O)Nc2ccccc2)cc1NC(=S)Nc1cccc(C(F)(F)F)c1` it is 177 to 178 °C.
Molecule `COc1cc(NC(=O)Nc2c(-c3ccccc3Cl)c3cc(C)ccc3oc2=O)cc(OC)c1OC(C)=O` registered a melting point of 238 to 240 °C.
In the case of `O=C(O)c1sc2cc(OCc3cccnc3)ccc2c1Sc1ccccc1` it was 236 to 238 °C; in that of `O=C(NCCCCCCC(=O)c1ncco1)c1cc2ccccc2[nH]1`, 153 to 156 °C; in that of `Cc1cc(NNC(=O)OC(C)(C)C)c([N+](=O)[O-])c(N(Cc2ccccc2)Cc2ccccc2)n1`, 60 to 67 °C.
`CN(C)c1ncc2cc(-c3c(Cl)cccc3Cl)c(=O)n(C)c2n1`: the melting point was 256 to 258 °C.
For `CSc1ccc2c(=O)c(OS(C)(=O)=O)cn(C)c2c1`, the melting point was 182 °C.
In the case of `Cc1c(N)cccc1-c1ccnc(Nc2ccc(C(=O)N3CCOCC3)cc2)n1` it was 183 to 184 °C; in that of `Cc1nc2c3c(c(C(=O)NC4CC4)cc2n1C)CCC1(Cc2ccccc2C1)N3`, 247 to 248 °C.
As for `CCCn1cnc(NC)c1C(=O)NCCCCCCOc1ccc(Cl)cc1`, the melting point was in the range of 66 to 67 °C.
Regarding `Cn1c(-c2ccc(Cl)cc2)cc(=O)c(C(=O)O)c1-c1ccc(Cl)cc1`, the melting point is 187 to 190 °C.
As for `CCC(=O)N[C@H]1CCc2c(ccc(OC)c2OC)C1`, the melting point lay in the range of 149 to 151 °C.
The figure for `CC(=O)Oc1ccc(NCc2c(F)c(F)c(C(F)(F)F)c(F)c2F)cc1C(=O)O` is 185 to 187 °C; for `COC(=O)c1ccc2c(c1)C(=O)CC(C)(COc1ccc([N+](=O)[O-])cc1)O2` (configuration not stated) it is 144 to 145 °C.
For `CCC1CC(=O)N(Cc2cccc(NC(C)=O)c2)N=C1c1ccc(OC)c(OC2CCCC2)c1` (configuration not stated), the melting point amounted to 70 °C.
The figure for `Cn1ccnc1Sc1ccc(Nc2c(C#N)cnc3cc(/C=C/CCO)ccc23)cc1Cl` is 205 to 210 °C.
The figure for `O=c1c2cc(F)c(F)cc2nc(CSc2ncnc3[nH]cnc23)n1-c1ccccc1Cl` is 208 °C; for `Clc1cc(NC23CC4CC(CC(C4)C2)C3)nc(N2CCCC2)n1` it is 186 to 190 °C; for `O=S1(=O)N=CN(C2CC2)c2cc(F)cc(F)c21` it is 167 to 168 °C.
Take `CSc1cc2c(cc1C(F)(F)F)N(C(=O)Nc1ccc(C(=O)Nc3cccnc3)cc1)CC2`: the melting point is above 200 °C.
In the case of `CC(=O)C(=Cc1cccc([N+](=O)[O-])c1)C(=O)OC(C)CCl` (configuration not stated) it was 95 to 96 °C.
Consider `O=[N+]([O-])c1cc(CO)c(Cl)cc1F`, for which the melting point lay in the range of 39 to 41 °C.
The figure for `Cc1c(C#N)ccc([N+](=O)[O-])c1C#N` is 122 to 124 °C; for `O=C1NC(C(=O)NCCO[N+](=O)[O-])C(c2ccc(Cl)cc2)S1` (configuration not stated) it is 125 to 127 °C; for `CCc1sc2ccc(C)cc2c1S(=O)(=O)Nc1onc(C)c1Br` it is 176 to 178 °C.
The figure for `COC(OC)C(=O)NCc1ccc(C)cc1` is 45.8 °C.
The figure for `CCOC(=O)c1nc(-c2ccccc2)nc2c1c1ccc(Cl)cc1n2C` is 139 to 140 °C; for `O=c1[nH]ncc2c(OCC3CO3)cccc12` (configuration not stated) it is 173 to 174 °C; for `COc1ccc2c(c1)c(Br)cn2C(=O)OC(C)(C)C` it is 111 to 112 °C.
Molecule `Cc1ncn(CCCOc2c(C)cc(-c3nnn(C)n3)cc2C)n1` gave a melting point of 101 to 103 °C.
In the case of `O=C1c2ccccc2C(=O)N1CCSc1ncccn1` it was 149 to 150 °C.
In the case of `COc1ccc(C2Sc3cc(Oc4ccccc4)ccc3N(CCN(C)C)C(=O)C2OC(C)=O)cc1F` (configuration not stated) it was 167 to 168 °C; in that of `COC(=O)c1ccc(CCNCC(O)c2cc3ccccc3o2)cc1` (configuration not stated), 117 to 119 °C; in that of `CCCOc1ccc(CCCOc2ccc3c(c2)C=C(C(=O)Nc2ccc(CN(C)C4CCOCC4)cc2)CCS3(=O)=O)cc1`, 178 to 181 °C.
In the case of `CC(C)(C)c1cc(CC(Cc2cc(C(C)(C)C)c(O)c(C(C)(C)C)c2)(Cc2cc(C(C)(C)C)c(O)c(C(C)(C)C)c2)[N+](=O)[O-])cc(C(C)(C)C)c1O` it was 199 to 201 °C; in that of `CC1C(=O)N(C(=O)NS(=O)(=O)c2ccc(Cl)cc2)N1C(c1ccccc1)c1ccccc1` (configuration not stated), 124 to 129 °C; in that of `CC1CC2C3CCC4=CC(=O)C=CC4(C)C3=CCC2(C)C1C(=O)CN1CCN(c2cc(NCC(C)(C)C)nc(NCC(C)(C)C)n2)CC1` (configuration not stated), 140 to 150 °C.
In the case of `CCOC(=NC(=O)c1ccc(Cl)cc1)N1Cc2ccccc2-c2ccccc2C1`, the melting point lay within 106 to 107 °C.
The figure for `CCOP(=O)(OCC)c1cccc2c(P(=O)(OCC)OCC)cccc12` is 169 to 171 °C; for `N#Cc1cc(=O)n(-c2c(Cl)cc(C(F)(F)F)cc2Cl)[nH]1` it is 198 to 201 °C.
The molecule `O=C(O)c1ccccc1-c1cc(-c2ccc(Cl)cc2)on1` returned a melting point of 174 to 176 °C.
In turn, `COc1ccc(/C=C/c2c(Cl)cncc2Cl)c2c1OC(C)(C)C2` returned a melting point of 114 to 118 °C.
`CCc1c2c(nn1CC)c(N)nc1cc(OC)ccc12` registered a melting point of 210 to 211 °C.
The figure for `N#CSc1cc(N)c(N)cc1Cl` is 108 to 110 °C; for `O=C(O)Cc1ccc(NC(=O)CCc2cnn(-c3ccccc3)c2-c2ccccc2)cc1` it is 199 to 201 °C.
In the case of `CCOC(=O)Cn1c(=O)n(S(=O)(=O)c2ccc(Cl)cc2)c(=O)c2ccccc21` it was 208 to 209 °C; in that of `N#Cc1c(CNC(=O)c2ccc(OC(F)(F)F)cc2)nn(-c2ccc(Cl)cc2Cl)c1-c1ccc(Cl)cc1`, 180 °C; in that of `CC(=O)Oc1ccc2cccc(OCC(=O)c3ccccc3)c2n1`, 141 to 142 °C.
For `CC(C)(C)OC(=O)N1CCC(c2ccc(Nc3nc4c(-c5cnn(-c6ccc(F)cc6)c5)cccn4n3)cc2)CC1`, the melting point lay within 176 to 178 °C.
The figure for `COc1ccc(N)c2nccc(Cl)c12` is 111 to 115 °C; for `O=[N+]([O-])C1([N+](=O)[O-])CN(C(F)(F)F)C1` it is 70 to 71 °C.
In the case of `CCCCCCCC(=O)CCCCCC(=O)N[C@@H](C)C(=O)OC` it was 61 to 64 °C.

Broadly, the melting point is the temperature, or range, at which the solid turns liquid.
